In patent publication US20260345623A1, “NOVEL […] HETEROCYCLIC CARBALDEHYDE COMPOUND AND PHARMACEUTICAL COMPOSITION, CONTAINING SAME, FOR IRE1alpha INHIBITION” (HANMI PHARM. CO., LTD., priority 2022, published 2026) one finds IC50 data, which are given here for 24 compounds.

The structures appear in SMILES notation.

In the first assay the target is T1, spliced XBP1 mRNA (target of IRE endonuclease) in MCF-7 cancer cells (Homo sapiens, UniProt O75460).
T1 construct: tunicamycin ER stress; RT-PCR of spliced XBP1 mRNA (RNase domain activity)
T1 sequence (O75460 19-977): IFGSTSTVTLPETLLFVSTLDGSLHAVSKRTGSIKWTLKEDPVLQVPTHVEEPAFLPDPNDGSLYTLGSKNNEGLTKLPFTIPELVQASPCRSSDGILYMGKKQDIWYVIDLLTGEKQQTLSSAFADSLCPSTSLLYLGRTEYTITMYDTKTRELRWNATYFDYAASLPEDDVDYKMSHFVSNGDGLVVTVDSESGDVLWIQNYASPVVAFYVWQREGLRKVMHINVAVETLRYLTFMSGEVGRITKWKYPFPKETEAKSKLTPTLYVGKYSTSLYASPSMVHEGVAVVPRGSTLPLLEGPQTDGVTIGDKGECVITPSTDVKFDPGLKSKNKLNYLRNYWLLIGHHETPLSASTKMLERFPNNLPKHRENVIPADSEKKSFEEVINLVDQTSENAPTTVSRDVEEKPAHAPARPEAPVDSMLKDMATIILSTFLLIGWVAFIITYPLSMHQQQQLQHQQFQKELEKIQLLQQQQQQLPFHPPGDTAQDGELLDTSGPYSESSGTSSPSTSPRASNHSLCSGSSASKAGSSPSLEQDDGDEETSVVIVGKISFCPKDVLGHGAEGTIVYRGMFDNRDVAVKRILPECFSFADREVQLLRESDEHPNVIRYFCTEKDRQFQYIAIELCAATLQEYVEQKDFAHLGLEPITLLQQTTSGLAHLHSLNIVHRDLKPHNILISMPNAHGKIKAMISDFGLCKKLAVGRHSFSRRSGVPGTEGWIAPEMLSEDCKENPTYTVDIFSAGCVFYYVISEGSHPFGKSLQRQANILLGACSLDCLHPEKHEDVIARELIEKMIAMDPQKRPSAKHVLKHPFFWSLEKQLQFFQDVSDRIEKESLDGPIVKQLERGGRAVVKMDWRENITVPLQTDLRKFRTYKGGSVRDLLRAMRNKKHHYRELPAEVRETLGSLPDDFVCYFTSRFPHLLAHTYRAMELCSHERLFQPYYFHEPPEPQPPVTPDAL
Nature of the assay: Spliced XBP1 mRNA Measurement Test (RT-PCR, tunicamycin-induced ER stress, MCF-7 cells). The class given is cell-based. To be noted: 1 hour pre-treatment with compound, 2 μg/mL tunicamycin 6 or 24 hours, spliced XBP1 corrected by total XBP1, read-out: XBP1 mRNA (IC50). As for the experimental part:
A reverse transcription polymerase chain reaction is a test method in which RNA is extracted from cells, reverse transcriptase is used to make cDNA, and relative mRNA expression level is measured through a polymerase chain reaction.
Briefly, MCF-7 cells were seeded in a 12-well plate and cultured in an incubator including 5% CO2 for one day. On the next day, compounds, which were 10-fold serially diluted from 10,000 nM, were pre-treated for 1 hour, and then, treated with 2 μg/mL tunicamycin for 6 or 24 hours to induce endoplasmic reticulum stress, followed by cell lysis to obtain RNA. RNA was subjected to the procedure of RNeasy Kits (Qiagen, 74106), and 5 μg of RNA sample was dissolved in a sample including reverse transcriptase and dNTP, and reverse transcription reaction was performed with a thermal cycler. The amount of mRNA of each of spliced XBP1 and total XBP1 was measured by a polymerase chain reaction through real time PCR by mixing each cDNA sample with a PCR reaction mixture including a primer pair capable of binding specifically to each target and SYBR green dye. The expression level of spliced XBP1 was corrected by the total expression level of XBP1, and the relative expression levels of spliced XBP1 between samples were compared and analyzed.
On to `Cc1c(CC(=O)N2CCOCC2)c(=O)oc2c(C=O)c(O)c3c(c12)CCO3` [Example 1, 4-hydroxy-9-methyl-8-(2-morpholino-2-oxoethyl)-7-oxo-1,7-dihydro-2H-furo[3,2-f]chromene-5-carbaldehyde], for which the IC50 is less than 0.1 µM.

Take `Cc1c(CC(=O)N2CCOCC2)c(=O)oc2c(C=O)c(O)c3c(c12)OCO3` [Example 2, 4-hydroxy-9-methyl-8-(2-morpholino-2-oxoethyl)-7-oxo-7H-[1,3]dioxolo[4,5-f]chromene-5-carbaldehyde]: the IC50 lay in the range of 0.1 to 0.2 µM. Still for that read-out and setting: as for `Cc1c(CC(=O)N2CCOCC2)c(=O)oc2c(C=O)c(O)c3c(c12)CCCO3` [Example 3, 6-hydroxy-1-methyl-2-(2-morpholino-2-oxoethyl)-3-oxo-3,8,9,10-tetrahydropyrano[3,2-f]chromene-5-carbaldehyde], the figure is less than 0.1 µM. The same measure, in the same setting: the figure for `Cc1c(CC(=O)N2CCC(C)CC2)c(=O)oc2c(C=O)c(O)c3c(c12)CCCO3` [Example 4, 6-hydroxy-1-methyl-2-(2-(4-methylpiperidin-1-yl)-2-oxoethyl)-3-oxo-3,8,9,10-tetrahydropyrano[3,2-f]chromene-5-carbaldehyde] is greater than 0.2 µM; for `Cc1c(CC(=O)N2CCCC2)c(=O)oc2c(C=O)c(O)c3c(c12)CCCO3` [Example 5, 6-hydroxy-1-methyl-3-oxo-2-(2-oxo-2-(pyrrolidin-1-yl)ethyl)-3,8,9,10-tetrahydropyrano[3,2-f]chromene-5-carbaldehyde] it is less than 0.1 µM; for `CCNC(=O)Cc1c(C)c2c3c(c(O)c(C=O)c2oc1=O)OCC3` [Example 8, N-ethyl-2-(5-formyl-4-hydroxy-9-methyl-7-oxo-1,7-dihydro-2H-furo[3,2-f]chromen-8-yl)acetamide] it is less than 0.1 µM. Same read-out and setting: as for `CCN(CC)C(=O)Cc1c(C)c2c3c(c(O)c(C=O)c2oc1=O)OCC3` [Example 9, N,N-diethyl-2-(5-formyl-4-hydroxy-9-methyl-7-oxo-1,7-dihydro-2H-furo[3,2-f]chromen-8-yl)acetamide], the figure is less than 0.1 µM; as for `Cc1c(CC(=O)N2CCC(F)(F)C2)c(=O)oc2c(C=O)c(O)c3c(c12)CCCO3` [Example 10, 2-(2-(3,3-difluoropyrrolidin-1-yl)-2-oxoethyl)-6-hydroxy-1-methyl-3-oxo-3,8,9,10-tetrahydropyrano[3,2-f]chromene-5-carbaldehyde], less than 0.1 µM. On to `Cc1c(CC(=O)N2CCC(C)C2)c(=O)oc2c(C=O)c(O)c3c(c12)CCCO3` (stereo not drawn) [Example 11, 6-hydroxy-1-methyl-2-(2-(3-methylpyrrolidin-1-yl)-2-oxoethyl)-3-oxo-3,8,9,10-tetrahydropyrano[3,2-f]chromene-5-carbaldehyde], for which the IC50 was less than 0.1 µM. On the same count and under the same terms, as for `Cc1c(CC(=O)N2CCC(C)(C)C2)c(=O)oc2c(C=O)c(O)c3c(c12)CCCO3` [Example 12, 2-(2-(3,3-dimethylpyrrolidin-1-yl)-2-oxoethyl)-6-hydroxy-1-methyl-3-oxo-3,8,9,10-tetrahydropyrano[3,2-f]chromene-5-carbaldehyde], the figure is 0.1 to 0.2 µM; as for `Cc1c(CC(=O)N2CCC2)c(=O)oc2c(C=O)c(O)c3c(c12)CCCO3` [Example 13, 2-(2-(azetidin-1-yl)-2-oxoethyl)-6-hydroxy-1-methyl-3-oxo-3,8,9,10-tetrahydropyrano[3,2-f]chromene-5-carbaldehyde], 0.1 to 0.2 µM; as for `COC1CCN(C(=O)Cc2c(C)c3c4c(c(O)c(C=O)c3oc2=O)OCCC4)C1` (stereo not drawn) [Example 14, 6-hydroxy-2-(2-(3-methoxypyrrolidin-1-yl)-2-oxoethyl)-1-methyl-3-oxo-3,8,9,10-tetrahydropyrano[3,2-f]chromene-5-carbaldehyde], 0.1 to 0.2 µM. For the compound `COC1CN(C(=O)Cc2c(C)c3c4c(c(O)c(C=O)c3oc2=O)OCCC4)C1` [Example 15, 6-hydroxy-2-(2-(3-methoxyazetidin-1-yl)-2-oxoethyl)-1-methyl-3-oxo-3,8,9,10-tetrahydropyrano[3,2-f]chromene-5-carbaldehyde], the IC50 was in the range of 0.1 to 0.2 µM. With `Cc1c(CC(=O)N2CCC(F)C2)c(=O)oc2c(C=O)c(O)c3c(c12)CCCO3` (stereo not drawn) [Example 16, 2-(2-(3-fluoropyrrolidin-1-yl)-2-oxoethyl)-6-hydroxy-1-methyl-3-oxo-3,8,9,10-tetrahydropyrano[3,2-f]chromene-5-carbaldehyde], the IC50 was greater than 0.2 µM.

Turning to `CCNC(=O)Cc1c(C)c2c3c(c(O)c(C=O)c2oc1=O)OCCC3` [Example 17, N-ethyl-2-(5-formyl-6-hydroxy-1-methyl-3-oxo-3,8,9,10-tetrahydropyrano[3,2-f]chromen-2-yl)acetamide], the IC50 was less than 0.1 µM.

Turning to `CCc1c(CC(=O)N2CCCC2)c(=O)oc2c(C=O)c(O)c3c(c12)CCCO3` [Example 18, 1-ethyl-6-hydroxy-3-oxo-2-(2-oxo-2-(pyrrolidin-1-yl)ethyl)-3,8,9,10-tetrahydropyrano[3,2-f]chromene-5-carbaldehyde], the IC50 is greater than 0.2 µM.

Turning to `Cc1c(CC(=O)N2CC(F)C2)c(=O)oc2c(C=O)c(O)c3c(c12)CCCO3` [Example 19, 2-(2-(3-fluoroazetidin-1-yl)-2-oxoethyl)-6-hydroxy-1-methyl-3-oxo-3,8,9,10-tetrahydropyrano[3,2-f]chromene-5-carbaldehyde], the IC50 lay within 0.1 to 0.2 µM. Still for that read-out and setting: the figure for `Cc1c(CC(=O)N2CCC3(CC3)C2)c(=O)oc2c(C=O)c(O)c3c(c12)CCCO3` [Example 20, 6-hydroxy-1-methyl-3-oxo-2-(2-oxo-2-(5-azaspiro[2.4]heptan-5-yl)ethyl)-3,8,9,10-tetrahydropyrano[3,2-f]chromene-5-carbaldehyde] is 0.1 to 0.2 µM; for `Cc1c(CC(=O)N2CCCCC2)c(=O)oc2c(C=O)c(O)c3c(c12)CCCO3` [Example 21, 6-hydroxy-1-methyl-3-oxo-2-(2-oxo-2-(piperidin-1-yl)ethyl)-3,8,9,10-tetrahydropyrano[3,2-f]chromene-5-carbaldehyde] it is greater than 0.2 µM; for `Cc1c(CC(N)=O)c(=O)oc2c(C=O)c(O)c3c(c12)CCCO3` [Example 22, 2-(5-formyl-6-hydroxy-1-methyl-3-oxo-3,8,9,10-tetrahydropyrano[3,2-f]chromen-2-yl)acetamide] it is greater than 0.2 µM. The same measure, in the same setting: the figure for `CC(C)c1c(CC(=O)N2CCCC2)c(=O)oc2c(C=O)c(O)c3c(c12)CCCO3` [Example 23, 6-hydroxy-1-isopropyl-3-oxo-2-(2-oxo-2-(pyrrolidin-1-yl)ethyl)-3,8,9,10-tetrahydropyrano[3,2-f]chromene-5-carbaldehyde] is 0.1 to 0.2 µM. Still for that read-out and setting: the figure for `COCCNC(=O)Cc1c(C)c2c3c(c(O)c(C=O)c2oc1=O)OCCC3` [Example 24, 2-(5-formyl-6-hydroxy-1-methyl-3-oxo-3,8,9,10-tetrahydropyrano[3,2-f]chromen-2-yl)-N-(2-methoxyethyl)acetamide] is less than 0.1 µM.

Staying with this assay, now noted: read-out: XBP1 mRNA (IC50), 1 hour pre-treatment with compound, 2 μg/mL tunicamycin 6 or 24 hours, spliced XBP1 corrected by total XBP1.
With `Cc1c(CC(=O)N2CCN(C)CC2)c(=O)oc2c(C=O)c(O)c3c(c12)CCCO3` [Example 6, 6-hydroxy-1-methyl-2-(2-(4-methylpiperazin-1-yl)-2-oxoethyl)-3-oxo-3,8,9,10-tetrahydropyrano[3,2-f]chromene-5-carbaldehyde], the IC50 was less than 0.1 µM.

As to `Cc1c(CC(=O)N2CCN(C(C)C)CC2)c(=O)oc2c(C=O)c(O)c3c(c12)CCCO3` [Example 7, 6-hydroxy-2-(2-(4-isopropylpiperazin-1-yl)-2-oxoethyl)-1-methyl-3-oxo-3,8,9,10-tetrahydropyrano[3,2-f]chromene-5-carbaldehyde], the IC50 was in the range of 0.1 to 0.2 µM.
